Test results published in ChEMBL document CHEMBL1201862, “PubChem BioAssay data set” (2004).
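Values below derive from 48-hour exposures of cells grown in 96-well plates, with endpoints linearly interpolated between the two concentrations bracketing the appropriate inhibition level. GI50 marks 50% less growth.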 Active and inactive are the calls of the source. Cut-off read from the data, not from the text of the source: active = GI50 up to about 1.1 µM and inactive = higher.

Tests used:
Assay in all cases: DTP human tumour cell line panel, 48 h
RXF 393 = tested on: RXF 393
SNB-75 = tested on: SNB-75
XF498 = tested on: XF498
SNB-19 = tested on: SNB-19
KM12 = tested on: KM12
A549 = tested on: A549
EKVX = tested on: EKVX
ACHN = tested on: ACHN
COLO 205 = tested on: COLO 205
M14 = tested on: M14
LXFL 529 = tested on: LXFL 529
UO-31 = tested on: UO-31
SK-OV-3 = tested on: SK-OV-3
DMS-114 = tested on: DMS-114
OVCAR-8 = tested on: OVCAR-8
LOX IMVI = tested on: LOX IMVI
NCI-H226 = tested on: NCI-H226
SK-MEL-28 = tested on: SK-MEL-28
SK-MEL-2 = tested on: SK-MEL-2
SNB-78 = tested on: SNB-78
SW-620 = tested on: SW-620
OVCAR-4 = tested on: OVCAR-4
NCI-H23 = tested on: NCI-H23
M19-MEL = tested on: M19-MEL
HOP-92 = tested on: HOP-92
SN12C = tested on: SN12C
KM-20L2 = tested on: KM-20L2
SF-539 = tested on: SF-539
RPMI-8226 = tested on: RPMI-8226
Malme-3M = tested on: Malme-3M
IGROV-1 = tested on: IGROV-1
HT-29 = tested on: HT-29
UACC-62 = tested on: UACC-62
TK-10 = tested on: TK-10
NCI-H460 = tested on: NCI-H460
OVCAR-3 = tested on: OVCAR-3
CAKI-1 = tested on: CAKI-1
786-0 = tested on: 786-0
CCRF-CEM = tested on: CCRF-CEM
NCI-H522 = tested on: NCI-H522
MOLT-4 = tested on: MOLT-4
K562 = tested on: K562
SF-295 = tested on: SF-295
A498 = tested on: A498
DMS-273 = tested on: DMS-273
HCT-15 = tested on: HCT-15
UACC-257 = tested on: UACC-257
OVCAR-5 = tested on: OVCAR-5
SF-268 = tested on: SF-268
HL-60 = tested on: HL-60
DLD-1 = tested on: DLD-1
HCC 2998 = tested on: HCC 2998
SK-MEL-5 = tested on: SK-MEL-5
HOP-62 = tested on: HOP-62
HCT-116 = tested on: HCT-116
U-251 = tested on: U-251

`CC1CC(c2cccc3c2OCO3)=Nc2ccccc2S1` (stereo not drawn) was tested, and the GI50 (RXF 393) was > 100 µM (inactive), the GI50 (SNB-75) was > 100 µM (inactive) and the GI50 (XF498) was > 100 µM (inactive). For the same compound, the GI50 (SNB-19) was > 100 µM (inactive), the GI50 (KM12) was > 100 µM (inactive) and the GI50 (A549) was > 100 µM (inactive). The GI50 (EKVX) was > 100 µM (inactive), the GI50 (ACHN) was > 100 µM (inactive) and the GI50 (COLO 205) was > 100 µM (inactive). For the same compound, the GI50 (M14) was > 100 µM (inactive), the GI50 (LXFL 529) was > 100 µM (inactive) and the GI50 (UO-31) was > 100 µM (inactive). The GI50 (SK-OV-3) was > 100 µM (inactive), the GI50 (DMS-114) was 65.6 µM (inactive) and the GI50 (OVCAR-8) was > 100 µM (inactive). The GI50 (LOX IMVI) was > 100 µM (inactive), the GI50 (NCI-H226) was > 100 µM (inactive) and the GI50 (SK-MEL-28) was > 100 µM (inactive). The GI50 (SK-MEL-2) was > 100 µM (inactive), the GI50 (SNB-78) was > 100 µM (inactive) and the GI50 (SW-620) was > 100 µM (inactive). The GI50 (OVCAR-4) was > 100 µM (inactive), the GI50 (NCI-H23) was > 100 µM (inactive) and the GI50 (M19-MEL) was > 100 µM (inactive). For the same compound, the GI50 (HOP-92) was > 100 µM (inactive), the GI50 (SN12C) was > 100 µM (inactive) and the GI50 (KM-20L2) was > 100 µM (inactive). For the same compound, the GI50 (SF-539) was > 100 µM (inactive), the GI50 (RPMI-8226) was > 100 µM (inactive) and the GI50 (Malme-3M) was > 100 µM (inactive). The GI50 (IGROV-1) was > 100 µM (inactive), the GI50 (HT-29) was > 100 µM (inactive) and the GI50 (UACC-62) was > 100 µM (inactive). For the same compound, the GI50 (TK-10) was > 100 µM (inactive), the GI50 (NCI-H460) was > 100 µM (inactive) and the GI50 (OVCAR-3) was > 100 µM (inactive). For the same compound, the GI50 (CAKI-1) was > 100 µM (inactive), the GI50 (786-0) was > 100 µM (inactive) and the GI50 (CCRF-CEM) was > 100 µM (inactive). The GI50 (NCI-H522) was > 100 µM (inactive), the GI50 (MOLT-4) was > 100 µM (inactive) and the GI50 (K562) was > 100 µM (inactive). For the same compound, the GI50 (SF-295) was > 100 µM (inactive), the GI50 (A498) was > 100 µM (inactive) and the GI50 (DMS-273) was > 100 µM (inactive). For the same compound, the GI50 (HCT-15) was greater than 100 µM, the GI50 (UACC-257) was > 100 µM (inactive) and the GI50 (OVCAR-5) was > 100 µM (inactive). The GI50 (SF-268) was > 100 µM (inactive), the GI50 (HL-60) was > 100 µM (inactive) and the GI50 (DLD-1) was > 100 µM (inactive). The GI50 (HCC 2998) was > 100 µM (inactive) and the GI50 (SK-MEL-5) was > 100 µM (inactive).

In the case of `O=C(CC(CC(=O)Oc1c(Br)cc(Br)cc1C(=O)O)C(=O)Oc1c(Br)cc(Br)cc1C(=O)O)Oc1c(Br)cc(Br)cc1C(=O)O`, the GI50 (SNB-75) was 26.1 µM (inactive), the GI50 (XF498) was 0.504 µM (active) and the GI50 (HOP-62) was 46.5 µM (inactive). For the same compound, the GI50 (SNB-19) was 48.8 µM (inactive), the GI50 (KM12) was 50.7 µM (inactive) and the GI50 (HCT-116) was 43.6 µM (inactive). The GI50 (A549) was 47.5 µM (inactive), the GI50 (EKVX) was 44.9 µM (inactive) and the GI50 (ACHN) was > 100 µM (inactive). The GI50 (COLO 205) was > 100 µM (inactive), the GI50 (M14) was 91.6 µM (inactive) and the GI50 (LXFL 529) was 58.6 µM (inactive). For the same compound, the GI50 (UO-31) was 36.5 µM (inactive), the GI50 (SK-OV-3) was 54.7 µM (inactive) and the GI50 (DMS-114) was 31.8 µM (inactive). The GI50 (OVCAR-8) was 19.3 µM (inactive), the GI50 (LOX IMVI) was 30.8 µM (inactive) and the GI50 (NCI-H226) was 20.7 µM (inactive). For the same compound, the GI50 (SK-MEL-28) was > 100 µM (inactive), the GI50 (SK-MEL-2) was 39.2 µM (inactive) and the GI50 (SNB-78) was 49.2 µM (inactive). For the same compound, the GI50 (SW-620) was 69.5 µM (inactive), the GI50 (OVCAR-4) was 50.2 µM (inactive) and the GI50 (NCI-H23) was 36.4 µM (inactive). The GI50 (M19-MEL) was > 100 µM (inactive), the GI50 (HOP-92) was 16.5 µM (inactive) and the GI50 (SN12C) was 52.1 µM (inactive). For the same compound, the GI50 (KM-20L2) was 56.6 µM (inactive), the GI50 (SF-539) was 48.1 µM (inactive) and the GI50 (RPMI-8226) was 33.7 µM (inactive). For the same compound, the GI50 (Malme-3M) was 70.1 µM (inactive), the GI50 (IGROV-1) was 29 µM (inactive) and the GI50 (HT-29) was 49.2 µM (inactive). The GI50 (UACC-62) was 49.9 µM (inactive), the GI50 (TK-10) was 51.4 µM (inactive) and the GI50 (NCI-H460) was 56.8 µM (inactive). For the same compound, the GI50 (OVCAR-3) was 47.8 µM (inactive), the GI50 (CAKI-1) was 72.6 µM (inactive) and the GI50 (786-0) was > 100 µM (inactive). The GI50 (CCRF-CEM) was 41.6 µM (inactive), the GI50 (NCI-H522) was 22.2 µM (inactive) and the GI50 (MOLT-4) was 46.5 µM (inactive). For the same compound, the GI50 (K562) was 41.4 µM (inactive), the GI50 (SF-295) was 71.3 µM (inactive) and the GI50 (A498) was 81.5 µM (inactive). For the same compound, the GI50 (U-251) was 46.6 µM (inactive), the GI50 (DMS-273) was > 100 µM (inactive) and the GI50 (HCT-15) was 43.8 µM. The GI50 (UACC-257) was 83.6 µM (inactive), the GI50 (OVCAR-5) was 45.1 µM (inactive) and the GI50 (SF-268) was 6.12 µM (inactive). For the same compound, the GI50 (HL-60) was 43.7 µM (inactive), the GI50 (DLD-1) was 65 µM (inactive) and the GI50 (HCC 2998) was 42.3 µM (inactive). The GI50 (SK-MEL-5) was > 100 µM (inactive).
